Laboratory results: patent US6255088A, “Enzymatic sulfation of biomolecules” (The Scripps Research Institute, priority 1999, dated 2001)
Where two headings read alike, the source gives them in different places. One block for each molecule: values may come before it.

Columns and labels:
[1] = target: T1, NodST (Sinorhizobium meliloti, UniProt P06236); settings: read-out: Km of NodST for PAPS; preliminary study
T1 sequence (P06236 1-247): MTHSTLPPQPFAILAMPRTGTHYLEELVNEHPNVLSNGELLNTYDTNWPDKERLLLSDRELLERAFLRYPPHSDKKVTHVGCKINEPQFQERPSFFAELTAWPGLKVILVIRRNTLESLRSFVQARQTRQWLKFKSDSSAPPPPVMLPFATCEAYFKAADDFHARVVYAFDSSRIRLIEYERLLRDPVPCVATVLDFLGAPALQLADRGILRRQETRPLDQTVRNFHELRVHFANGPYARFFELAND
Protocol: To ensure that our coupled assay provides a steady-state PAPS concentration that is much greater than the Km of NodST, the Km experiments above were conducted with varying concentrations of PAPS to verify PAPS saturation. […] A previously published study using a radioisotopic thin-layer chromatography method to determine kinetic values of NodST maintained 100 μM PAPS concentration for all assays. Given that AST-IV maintains a constant concentration of PAPS through recycling, it is disclosed that 20 μM PAPS reaction concentration is sufficient for saturation conditions to maintain steady-state.

[2] = aqueous solution at pH 8.0; cited from earlier work
[3] = test system: hydroxysteroid sulfotransferase; settings: Marcus et al. 1980, cited from earlier work
[4] = target: T2, βAST-IV (Rattus norvegicus, UniProt P17988); test: Reverse-physiological reaction of βAST-IV (PAPS from PAP and p-nitrophenyl sulfate); assay type: biochemical; settings: 10 mM p-nitrophenyl sulfate, pH 7.0, 25° C.
T2 construct: made in house; host or cells: E. coli BL21(DE3)
Protocol: All capillary zone electrophoresis (CZE) was run in 0.23 M borate in running buffer at pH 7.8. The column was pre-washed with H2 O (1 min), 1 N NaOH (1 min), and running buffer (2 min). The sample was pressure injected at 20 psi sec and electrophoresis was run with 20.0 kV (- to +) at 20° C. with detection at 260 nm. CZE of 1 mM standards PAPS, PAP, and 3'-adenosine monophosphate (3'-AMP) were run to determine retention times. The reverse-physiological reaction assay mixture, a 500 μL solution containing 50 mM bis-tris propane-HCl buffer at pH 7.0, 1 mM 2-mercaptoethanol, 10 mM p-nitrophenyl sulfate, and 1 mM PAP at 25° C., was subjected to CZE prior to addition of enzyme (t=0). 5 mU βAST-IV was added and CZE was repeated 30 minutes after initiation. The reaction was then diluted 100-fold and CZE was run again. A 2.0 μL internal standard of 10 mM PAPS was added, and CZE was repeated.
βAST-IV activity in the reverse-physiological reaction was determined at 25° C. with a total volume of 500 μL. The reverse-physiological assay above was used with varying PAP concentration (15.6, 31.3, 62.5, 125, 250, 500 μM). Measurement of initial velocity was conducted over 10 seconds at 400 nm, and an extinction coefficient of 1064 was used to calculate p-nitrophenol concentration at pH 7.0. […]

[5] = target: T1, NodST; settings: Lin et al. 1995; read-out: Ki, PAP inhibition of NodST; cited from earlier work
[6] = target: T1, NodST; test: Continuous spectrophotometric coupled-enzyme assay of NodST with βAST-IV PAPS regeneration; assay type: biochemical, Rhizobium melioti
Protocol: 100 mM bis-tris propane-HCl, pH 7.0, 5 mM 2-mercaptoethanol, 20 μM PAPS, 2 mM p-nitrophenyl sulfate, 3.0 mU NodST, 6.4 mU β-AST IV, and substrate are combined to a total volume of 500 μL. Because commercial PAPS contains significant amounts of PAP, the assay solution is incubated for 30 minutes at 20° C. prior to addition of substrate. The evolution of p-nitrophenol is monitored at 400 nm for 10 minutes.
All reactions were run in a total volume of 500 μL at 25° C. […] The amount of NodST added to each series of acceptor concentrations is varied over 1.2, 1.8, 3.0, and 4.2 mU. Because commercial PAPS contains significant amounts of PAP, the assay solution is incubated for 30 minutes at 20° C. prior to addition of substrate. The evolution of p-nitrophenol is monitored at 400 nm for 10 minutes.
3.0 mU of NodST was used in each reaction. The Km for each series of PAP concentrations was calculated and the values were compared.

[7] = target: T1, NodST; settings: non-coupled radioisotope thin-layer chromatography assay, 100 μM PAPS; read-out: published Km of acceptor for NodST; cited from earlier work

T2 sequence (P17988 whole entry): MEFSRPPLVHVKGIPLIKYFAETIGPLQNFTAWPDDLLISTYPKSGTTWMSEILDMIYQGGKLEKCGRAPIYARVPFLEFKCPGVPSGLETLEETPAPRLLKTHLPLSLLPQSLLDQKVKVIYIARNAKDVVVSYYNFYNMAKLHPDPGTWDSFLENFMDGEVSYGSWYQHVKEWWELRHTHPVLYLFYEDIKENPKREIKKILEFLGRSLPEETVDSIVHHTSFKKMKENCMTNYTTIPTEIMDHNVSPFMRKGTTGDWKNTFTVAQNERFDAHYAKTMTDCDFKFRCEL

Km [1]: < 0.1 µM
Structure (SMILES): Nc1ncnc2c1ncn2[C@@H]1O[C@H](COP(=O)(O)OS(=O)(=O)O)[C@@H](OP(=O)(O)O)[C@H]1O [PAPS, 3'-phosphoadenosine-5'-phosphosulfate]
half-life of PAPS in aqueous solution [2]: approximately 20 hours

Structure (SMILES): Nc1ncnc2c1ncn2[C@@H]1O[C@H](COP(=O)(O)O)[C@@H](OP(=O)(O)O)[C@H]1O [PAP, adenosine 3',5'-diphosphate]
enzyme product inhibition of sulfotransferases [3]: low-micromolar levels | Ki ([3]; read-out: Ki, PAP inhibition of hydroxysteroid sulfotransferase): 14 µM | Vmax of βAST-IV as a function of PAP concentration [4]: 6.04 ± 0.24 µmol/min | Ki [5]: 0.1 µM

kcat of acceptor with NodST, PAPS concentration study ([6]; 20, 40 and 100 μM PAPS, all three within 10% variation, 3.0 mU NodST): ~23.6 s⁻¹
Structure (SMILES): CC(=O)N[C@H]1[C@H](O[C@H]2[C@H](O)[C@@H](NC(C)=O)C(O)O[C@@H]2CO)O[C@H](CO)[C@@H](O[C@@H]2O[C@H](CO)[C@@H](O)[C@H](O)[C@H]2NC(C)=O)[C@@H]1O (stereo partly drawn) [N,N',N"-triacetylchitotriose]

increase in acceptor specificity from LacNAc to the LacNAc dimer ([6]; NodST, coupled assay): sixty-fold increase
Structure (SMILES): CC(=O)N[C@H]1[C@H](O[C@H]2[C@@H](O)[C@@H](CO)O[C@@H](O[C@H]3[C@H](O)[C@@H](NC(C)=O)C(O)O[C@@H]3CO)[C@@H]2O)O[C@H](CO)[C@@H](O[C@@H]2O[C@H](CO)[C@H](O)[C@H](O)[C@H]2O)[C@@H]1O (stereo partly drawn) [LacNAc dimer, Galβ(1,4)GlcNAcβ(1,3) Galβ(1,4)GlcNAc]

Structure (SMILES): CC(=O)N[C@H]1[C@H](O[C@H]2[C@H](O)[C@@H](NC(C)=O)[C@H](O[C@H]3[C@H](O)[C@@H](NC(C)=O)C(O)O[C@@H]3CO)O[C@@H]2CO)O[C@H](CO)[C@@H](O[C@@H]2O[C@H](CO)[C@@H](O[C@@H]3O[C@H](CO)[C@@H](O)[C@H](O)[C@H]3NC(C)=O)[C@H](O)[C@H]2NC(C)=O)[C@@H]1O (stereo partly drawn) [N,N',N",N'",N""-pentaacetylchito-pentaose]
Km [7]: 190 µM

kcat of acceptor with NodST ([6]; apparent value, coupled assay, 20 μM PAPS, pH 7.0): 0.328 s⁻¹ | acceptor specificity for NodST, ranking among substrates ([6]; coupled assay, among N-acetyl chitoses, LacNAc and LacNAc dimer): best substrate
Structure (SMILES): CC(=O)N[C@H]1[C@H](O[C@H]2[C@H](O)[C@@H](NC(C)=O)C(O)O[C@@H]2CO)O[C@H](CO)[C@@H](O[C@@H]2O[C@H](CO)[C@@H](O[C@@H]3O[C@H](CO)[C@@H](O)[C@H](O)[C@H]3NC(C)=O)[C@H](O)[C@H]2NC(C)=O)[C@@H]1O (stereo partly drawn) [N,N',N",N'"-tetraacetylchitotetraose]
Km [7]: 140 µM
